Converted amounts (≈) assume the structure as drawn. Values belong to the compound of their own block, whether it stands above or below them.
How the values were obtained:
Staphylococcus aureus [1] = experiment: Antibacterial activity against Staphylococcus aureus MCC 91731 after 16 to 20 hrs by CLSI standard method; type: functional
Candida albicans [2] = experiment: Antifungal activity against Candida albicans MCC 50319 after 16 to 20 hrs by CLSI standard method; type: functional
[3] = Cytotoxicity against mouse L929 cells; type: cell-based; conditions: read-out: CT50 (the source's name)
[4] = Aqueous solubility at pH 4; type: physicochemical; conditions: aqueous solution
[5] = Therapeutic index, ratio of CT50 for mouse L929 cells to MBC for Staphylococcus aureus; type: cell-based; conditions: read-out: TI
[6] = Therapeutic index, ratio of CT50 for mouse L929 cells to MBC for Escherichia coli; type: cell-based; conditions: read-out: TI
[7] = Therapeutic index, ratio of CT50 for mouse L929 cells to MFC for Candida albicans; type: cell-based; conditions: read-out: TI
Staphylococcus aureus [8] = experiment: Antibacterial activity against Staphylococcus aureus ATCC 29213 after 16 to 20 hrs by CLSI standard method; type: functional
Escherichia coli [9] = experiment: Antibacterial activity against Escherichia coli ATCC 25922 after 16 to 20 hrs by CLSI standard method; type: functional
Candida albicans [10] = experiment: Antifungal activity against Candida albicans ATCC 10231 after 16 to 20 hrs by CLSI standard method; type: functional
Escherichia coli [11] = experiment: Antibacterial activity against Escherichia coli MCC 80392 after 16 to 20 hrs by CLSI standard method; type: functional

SMILES: CCOP(=O)(O)CC(C)(C)N(Cl)Cl
MBC (Staphylococcus aureus [1]): 2 µg/mL (≈ 8 µM)
MFC (Candida albicans [2]): 32 µg/mL (≈ 128 µM)
CC50 [3]: 80 µg/mL (≈ 320 µM)
half-life [4]: > 18 days
selectivity ratio [5]: 8
selectivity ratio [6]: 8
selectivity ratio [7]: 2

SMILES: CC(C)(COC(=O)CCS(=O)(=O)O)N(Cl)Cl
MBC (Staphylococcus aureus [1]): 1 µg/mL (≈ 3.4 µM)
MBC (Escherichia coli [9]): 2 µg/mL (≈ 6.8 µM)
MFC (Candida albicans [2]): 4 µg/mL (≈ 13.6 µM)
CC50 [3]: 130 µg/mL (≈ 442 µM)
half-life [4]: 64 days
selectivity ratio [5]: 8
selectivity ratio [6]: 8
selectivity ratio [7]: 2

SMILES: CC(C)(CS(=O)(=O)O)C(=O)OCC(C)(C)N(Cl)Cl
MBC (Staphylococcus aureus [8]): 8 µg/mL (≈ 24.8 µM)
MBC (Escherichia coli [9]): 4 µg/mL (≈ 12.4 µM)
MFC (Candida albicans [10]): 16 µg/mL (≈ 49.7 µM)
CC50 [3]: 840 µg/mL (≈ 2610 µM)
half-life [4]: 80 days
selectivity ratio [5]: 8
selectivity ratio [6]: 8
selectivity ratio [7]: 2

SMILES: CC(C)(CCCS(=O)(=O)O)N(Cl)Cl
MBC (Staphylococcus aureus [1]): 8 µg/mL (≈ 32 µM)
MBC (Escherichia coli [11]): 8 µg/mL (≈ 32 µM)
MFC (Candida albicans [2]): > 128 µg/mL
CC50 [3]: 640 µg/mL (≈ 2560 µM)
half-life [4]: 16 days
selectivity ratio [5]: 8
selectivity ratio [6]: 8
selectivity ratio [7]: 2

SMILES: CC(C)(CC(=O)OCCS(=O)(=O)O)N(Cl)Cl
MBC (Staphylococcus aureus [8]): 2 µg/mL (≈ 6.8 µM)
MBC (Escherichia coli [9]): 2 µg/mL (≈ 6.8 µM)
MFC (Candida albicans [10]): 64 µg/mL (≈ 218 µM)
CC50 [3]: 270 µg/mL (≈ 918 µM)
half-life [4]: > 95 days
selectivity ratio [5]: 8
selectivity ratio [6]: 8
selectivity ratio [7]: 2

SMILES: CC(C)(CP(=O)(O)O)N(Cl)Cl
MBC (Staphylococcus aureus [8]): 16 µg/mL (≈ 72.1 µM)
MBC (Escherichia coli [9]): 8 µg/mL (≈ 36 µM)
MFC (Candida albicans [10]): 16 µg/mL (≈ 72.1 µM)
CC50 [3]: 130 µg/mL (≈ 586 µM)
half-life [4]: 23 days
selectivity ratio [5]: 8
selectivity ratio [6]: 8
selectivity ratio [7]: 2

The next lines start with results.

half-life [4]: 44 days
SMILES: CC(=O)NS(=O)(=O)CC(C)(C)N(Cl)Cl
MBC (Staphylococcus aureus [8]): 1 µg/mL (≈ 3.8 µM)
MBC (Escherichia coli [9]): 2 µg/mL (≈ 7.6 µM)
MFC (Candida albicans [10]): 64 µg/mL (≈ 243 µM)
selectivity ratio [5]: 8
selectivity ratio [6]: 8
selectivity ratio [7]: 2

half-life [4]: > 200 days
SMILES: CC(C)(CS(=O)(=O)[O-])N(Cl)Cl.[Na+]
MBC (Staphylococcus aureus [1]): 1 µg/mL
MBC (Escherichia coli [11]): 4 µg/mL
MFC (Candida albicans [2]): 32 µg/mL
CC50 [3]: 1200 µg/mL
selectivity ratio [5]: 8
selectivity ratio [6]: 8
selectivity ratio [7]: 2

half-life [4]: > 95 days
SMILES: CC(C)(CS(=O)(=O)CCS(=O)(=O)O)N(Cl)Cl
MBC (Staphylococcus aureus [8]): 8 µg/mL (≈ 25.5 µM)
MBC (Escherichia coli [9]): 4 µg/mL (≈ 12.7 µM)
MFC (Candida albicans [10]): 64 µg/mL (≈ 204 µM)
CC50 [3]: 1820 µg/mL (≈ 5790 µM)
selectivity ratio [5]: 8
selectivity ratio [6]: 8
selectivity ratio [7]: 2

half-life [4]: 174 days
SMILES: CC(C)(CCS(=O)(=O)O)N(Cl)Cl
MBC (Staphylococcus aureus [8]): 4 µg/mL (≈ 16.9 µM)
MBC (Escherichia coli [9]): 4 µg/mL (≈ 16.9 µM)
MFC (Candida albicans [10]): 16 µg/mL (≈ 67.8 µM)
CC50 [3]: 1900 µg/mL (≈ 8050 µM)
selectivity ratio [5]: 8
selectivity ratio [6]: 8
selectivity ratio [7]: 2

From ChEMBL document CHEMBL1139249, “N,N-Dichloroaminosulfonic acids as novel topical antimicrobial agents” (Bioorg Med Chem Lett, 2009)
